Reference: patent publication US10645928B2, “Pesticidally active polycyclic derivatives with sulfur containing substituents” (Syngenta Participations AG, priority 2014, dated 2020)

What was measured:
Format in all cases: in vivo
[1] = system: Spodoptera littoralis (Egyptian Cotton Leaf Worm); test: Example B16: Spodoptera littoralis, sprayed cotton leaf discs, mortality; settings: foliar, 72 h, application rate of 200 ppm, L1 larvae, 3 days after infestation
Procedure: (§1) Cotton leaf discs were placed onto agar in 24-well microtiter plates and sprayed with aqueous test solutions prepared from 10,000 ppm DMSO stock solutions. After drying the leaf discs were infested with five L1 larvae. The samples were assessed for mortality 3 days after infestation.

[2] = system: Aedes aegypti (Yellow Fever Mosquito); test: Example B23: Aedes aegypti, dry deposits in 12 well tissue culture plates, control; settings: application rate of 200 ppm in ethanol, adult females, after 48 h and/or 24 h
Procedure: Test solutions, at an application rate of 200 ppm in ethanol, were applied to 12 well tissue culture plates. Once the deposits were dry, five, two to five day old adult female Aedes aegypti were added to each well, and sustained with a 10% sucrose solution in a cotton wool plug. Assessment of knockdown was made one hour after introduction, and mortality was assessed at 24 and 48 hours after introduction.

[3] = system: Plutella xylostella (Diamond Back Moth); test: Example B12: Plutella xylostella, treated artificial diet, mortality; settings: 120 h, application rate of 200 ppm, L2 larvae, 5 days after infestation
Procedure: (§2) 24-well microtiter plates with artificial diet were treated with aqueous test solutions prepared from 10,000 ppm DMSO stock solutions by pipetting. After drying, the plates were infested with L2 larvae (10 to 15 per well). The samples were assessed for mortality 5 days after infestation.

[4] = system: Euschistus heros (Neotropical Brown Stink Bug); test: Example B6: Euschistus heros, sprayed soybean leaves, mortality and growth inhibition; settings: 120 h, application rate of 200 ppm, N2 nymphs, 5 days after infestation, read-out: effect in at least one of the two categories (mortality or growth inhibition)
Procedure: Soybean leaves on agar in 24-well microtiter plates were sprayed with aqueous test solutions prepared from 10,000 ppm DMSO stock solutions. After drying the leaves were infested with N2 nymphs. The samples were assessed for mortality and growth inhibition in comparison to untreated samples 5 days after infestation.

[5] = system: Diabrotica balteata (Corn Root Worm); test: Example B3: Diabrotica balteata, sprayed maize sprouts, mortality; settings: 96 h, application rate of 200 ppm, L2 larvae, 4 days after infestation
Procedure: (§3) Maize sprouts placed onto an agar layer in 24-well microtiter plates were treated with aqueous test solutions prepared from 10,000 ppm DMSO stock solutions by spraying. After drying, the plates were infested with L2 larvae (6 to 10 per well). The samples were assessed for mortality 4 days after infestation.

[6] = system: Spodoptera littoralis (Egyptian Cotton Leaf Worm); test: Example B14: Spodoptera littoralis, sprayed cotton leaf discs, anti-feeding effect; settings: foliar, 72 h, application rate of 200 ppm, L1 larvae, 3 days after infestation
Procedure: as §1, with “anti-feeding effect in comparison to untreated samples” for “mortality”, “infestation. Control of Spodoptera littoralis by a test sample is given when the anti-feedant effect is higher than the untreated sample.” for “infestation.”

[7] = system: Spodoptera littoralis (Egyptian Cotton Leaf Worm); test: Example B17: Spodoptera littoralis, sprayed cotton leaf discs, mortality, anti-feeding effect and growth inhibition; settings: foliar, 72 h, application rate of 200 ppm, L1 larvae, 3 days after infestation, read-out: control (at least one of mortality, anti-feedant effect, growth inhibition)
Procedure: (§4) Cotton leaf discs were placed onto agar in 24-well microtiter plates and sprayed with aqueous test solutions prepared from 10,000 ppm DMSO stock solutions. After drying the leaf discs were infested with five L1 larvae. The samples were assessed for mortality, anti-feeding effect, and growth inhibition in comparison to untreated samples 3 days after infestation. Control of Spodoptera littoralis by a test sample is given when at least one of the categories mortality, anti-feedant effect, and growth inhibition is higher than the untreated sample.

[8] = system: Diabrotica balteata (Corn Root Worm); test: Example B2: Diabrotica balteata, sprayed maize sprouts, mortality and growth inhibition; settings: 96 h, application rate of 200 ppm, L2 larvae, 4 days after infestation, read-out: effect in at least one of the two categories (mortality or growth inhibition)
Procedure: as §3, with “mortality and growth inhibition in comparison to untreated samples” for “mortality”

[9] = system: Spodoptera littoralis (Egyptian Cotton Leaf Worm); test: Example B15: Spodoptera littoralis, sprayed cotton leaf discs, growth inhibition; settings: foliar, 72 h, application rate of 200 ppm, L1 larvae, 3 days after infestation, read-out: control (growth inhibition)
Procedure: as §4, with “for” for “for mortality, anti-feeding effect, and”, “when” for “when at least one of”, “the” for “the categories mortality, anti-feedant effect, and”

[10] = system: Plutella xylostella (Diamond Back Moth); test: Example B13: Plutella xylostella, treated artificial diet, mortality and growth inhibition; settings: 120 h, application rate of 200 ppm, L2 larvae, 5 days after infestation, read-out: effect in at least one of the two categories (mortality or growth inhibition)
Procedure: as §2, with “mortality and growth inhibition in comparison to untreated samples” for “mortality”

[11] = system: Euschistus heros (Neotropical Brown Stink Bug); test: Example B5: Euschistus heros, sprayed soybean leaves, mortality; settings: 120 h, application rate of 200 ppm, N2 nymphs, 5 days after infestation
Procedure: Soybean leaves on agar in 24-well microtiter plates were sprayed with aqueous test solutions prepared from 10,000 ppm DMSO stock solutions. After drying the leaves were infested with N2 nymphs. The samples were assessed for mortality 5 days after infestation.

[12] = system: Plutella xylostella (Diamond Back Moth); test: Example B10: Plutella xylostella, treated artificial diet, growth inhibition; settings: 120 h, application rate of 200 ppm, L2 larvae, 5 days after infestation
Procedure: as §2, with “growth inhibition in comparison to untreated samples” for “mortality”, “infestation. Control of Plutella xylostella by a test sample is given when the growth inhibition is higher than the untreated sample.” for “infestation.”

[13] = system: Spodoptera littoralis (Egyptian Cotton Leaf Worm); test: Example B20: Spodoptera littoralis, compound in agar absorbed by lettuce roots, mortality; settings: 144 h, test rate of 12.5 ppm, uptake by lettuce roots, Spodoptera eggs, 6 days after infestation
Source text: Test compounds were applied by pipette prepared from 10,000 ppm DMSO stock solutions into 24-well plates and mixed with agar. Lettuce seeds were placed onto the agar and the multi well plate was closed by another plate which contained also agar. After 7 days the compound was absorbed by the roots and the lettuce grew into the lid plate. The lettuce leaves were then cut off into the lid plate.
Spodoptera eggs were pipetted through a plastic stencil onto a humid gel blotting paper and the lid plate was closed with it. The samples were assessed for mortality 6 days after infestation.

[14] = system: Spodoptera littoralis (Egyptian Cotton Leaf Worm); test: Example B18: Spodoptera littoralis, compound in agar absorbed by lettuce roots, mortality, anti-feedant effect and growth inhibition; settings: 144 h, test rate of 12.5 ppm, uptake by lettuce roots, Spodoptera eggs, 6 days after infestation, read-out: effect in at least one of the three categories (mortality, anti-feeding, or growth inhibition)
Source text: Test compounds were applied by pipette from 10,000 ppm DMSO stock solutions into 24-well plates and mixed with agar. Lettuce seeds were placed onto the agar and the multi well plate was closed by another plate which contained also agar. After 7 days the compound was absorbed by the roots and the lettuce grew into the lid plate. The lettuce leaves were then cut off into the lid plate. Spodoptera eggs were pipetted through a plastic stencil onto a humid gel blotting paper and the lid plate was closed with it. The samples were assessed for mortality, anti-feedant effect and growth inhibition in comparison to untreated samples 6 days after infestation.

[15] = system: Spodoptera littoralis (Egyptian Cotton Leaf Worm); test: Example B19: Spodoptera littoralis, compound in agar absorbed by lettuce roots, anti-feedant effect; settings: 144 h, test rate of 12.5 ppm, uptake by lettuce roots, Spodoptera eggs, 6 days after infestation, read-out: anti-feeding
Source text: Test compounds were applied by pipette prepared from 10,000 ppm DMSO stock solutions into 24-well plates and mixed with agar. Lettuce seeds were placed onto the agar and the multi well plate was closed by another plate which contained also agar. After 7 days the compound was absorbed by the roots and the lettuce grew into the lid plate. The lettuce leaves were then cut off into the lid plate. Spodoptera eggs were pipetted through a plastic stencil onto a humid gel blotting paper and the lid plate was closed with it. The samples were assessed for anti-feedant effect in comparison to untreated samples 6 days after infestation.

[16] = system: Bemisia tabaci (Cotton White Fly); test: Example B1: Bemisia tabaci, sprayed cotton leaf discs, mortality; settings: foliar, 144 h, application rate of 200 ppm, adult white flies, 6 days after incubation
Procedure: Cotton leaf discs were placed on agar in 24-well microtiter plates and sprayed with aqueous test solutions prepared from 10,000 ppm DMSO stock solutions. After drying the leaf discs were infested with adult white flies. The samples were checked for mortality 6 days after incubation.

[17] = system: Frankliniella occidentalis (Western Flower Thrips); test: Example B7: Frankliniella occidentalis, sprayed sunflower leaf discs, mortality; settings: foliar, 168 h, application rate of 200 ppm, population of mixed ages, 7 days after infestation
Procedure: as §1, with “Sunflower” for “Cotton”, “on” for “onto”, “10,000” for “10,000 ppm”, “a Frankliniella population of mixed ages.” for “five L1 larvae.”, “7” for “3”

[18] = system: Myzus persicae (Green Peach Aphid); test: Example B8: Myzus persicae, sprayed sunflower leaf discs, mortality; settings: foliar, 144 h, application rate of 200 ppm, leaf disc spray, aphid population of mixed ages, 6 days after infestation
Procedure: Sunflower leaf discs were placed onto agar in a 24-well microtiter plate and sprayed with aqueous test solutions prepared from 10,000 ppm DMSO stock solutions. After drying, the leaf discs were infested with an aphid population of mixed ages. The samples were assessed for mortality 6 days after infestation.

CCS(=O)(=O)c1cc(-c2cccc(SC)c2)cnc1-c1cn2cnc(C(F)(F)F)cc2n1 [Compound P9]
≥ 80%: mortality at 200 ppm [1] | pest or weed control at 200 ppm [2] | mortality at 200 ppm [3] | percent effect (mortality or growth inhibition) at 200 ppm [4] | mortality at 200 ppm [5] | pest or weed control at 200 ppm [6] | percent control (mortality, anti-feedant effect or growth inhibition) at 200 ppm [7] | percent effect (mortality or growth inhibition) at 200 ppm [8] | inhibition at 200 ppm [9] | percent effect (mortality or growth inhibition) at 200 ppm [10] | mortality at 200 ppm [11] | inhibition at 200 ppm [12]

CCS(=O)(=O)c1cc(-n2ccc(C(F)(F)F)n2)cnc1-c1cn2cnc(C(F)(F)F)cc2n1 [Compound P4, 2-[3-ethylsulfonyl-5-[3-(trifluoromethyl)pyrazol-1-yl]-2-pyridyl]-7-(trifluoromethyl)imidazo[1,2-c]pyrimidine]
≥ 80%: mortality at 12.5 ppm [13] | mortality at 200 ppm [1] | percent effect (mortality, anti-feeding or growth inhibition) at 12.5 ppm [14] | pest or weed control at 200 ppm [2] | mortality at 200 ppm [3] | percent effect (mortality or growth inhibition) at 200 ppm [4] | mortality at 200 ppm [5] | pest or weed control at 200 ppm [6] | percent control (mortality, anti-feedant effect or growth inhibition) at 200 ppm [7] | percent effect (mortality or growth inhibition) at 200 ppm [8] | pest or weed control at 12.5 ppm [15] | mortality at 200 ppm [16] | percent effect (mortality or growth inhibition) at 200 ppm [10] | mortality at 200 ppm [11]

CCS(=O)(=O)c1cc(-c2ccc(Cl)cc2)cnc1-c1cn2cnc(C(F)(F)C(F)(F)F)cc2n1 [Compound P15]
≥ 80%: mortality at 12.5 ppm [13] | mortality at 200 ppm [1] | percent effect (mortality, anti-feeding or growth inhibition) at 12.5 ppm [14] | mortality at 200 ppm [3] | percent effect (mortality or growth inhibition) at 200 ppm [4] | pest or weed control at 200 ppm [6] | percent control (mortality, anti-feedant effect or growth inhibition) at 200 ppm [7] | percent effect (mortality or growth inhibition) at 200 ppm [8] | mortality at 200 ppm [17] | pest or weed control at 12.5 ppm [15] | mortality at 200 ppm [16] | percent effect (mortality or growth inhibition) at 200 ppm [10] | mortality at 200 ppm [11]

CCS(=O)(=O)c1cc(C2CC2)cnc1-c1cn2cnc(C(F)(F)F)cc2n1 [Compound P16, 2-(5-cyclopropyl-3-ethylsulfonyl-2-pyridyl)-7-(trifluoromethyl)imidazo [1,2-c]pyrimidine]
≥ 80%: mortality at 200 ppm [1] | pest or weed control at 200 ppm [2] | mortality at 200 ppm [3] | percent effect (mortality or growth inhibition) at 200 ppm [4] | mortality at 200 ppm [5] | pest or weed control at 200 ppm [6] | percent control (mortality, anti-feedant effect or growth inhibition) at 200 ppm [7] | percent effect (mortality or growth inhibition) at 200 ppm [8] | mortality at 200 ppm [17] | mortality at 200 ppm [18] | inhibition at 200 ppm [9] | percent effect (mortality or growth inhibition) at 200 ppm [10] | mortality at 200 ppm [11] | inhibition at 200 ppm [12]

CCS(=O)(=O)c1cc(-c2ccc(C#N)cc2)cnc1-c1cn2cnc(C(F)(F)F)cc2n1 [Compound P10]
≥ 80%: mortality at 200 ppm [1] | mortality at 200 ppm [3] | mortality at 200 ppm [5] | pest or weed control at 200 ppm [6] | percent control (mortality, anti-feedant effect or growth inhibition) at 200 ppm [7] | percent effect (mortality or growth inhibition) at 200 ppm [8] | mortality at 200 ppm [17] | mortality at 200 ppm [16] | inhibition at 200 ppm [9] | percent effect (mortality or growth inhibition) at 200 ppm [10]
